Reference: US7153822B2, “Compositions and methods for modulating connexin hemichannels” (Wyeth, priority 2002, dated 2006)
Square brackets hold non-standard residues; d marks the D form. Peptide text beside a SMILES is read from it. dHyp = O=C(O)[C@H]1C[C@H](O)CN1

Tested on: cultured primary cardiomyocytes
Assay: stimulus-activation interval (conduction velocity) during glucose removal, patch clamp
Assay type: cell-based, rat
Conditions: 10 nM, superfusion 20 min after 15 min without glucose
Procedure: 1. Cell culture: In short the hearts from 20 neonate rats (age 1–2 days) are excised aseptically. The ventricles are isolated and cut into 4–6 pieces, which are digested in several steps in a Hanks buffered saline with trypsin and DNAse. The cells are then centrifuged and resuspended in MEM with 5% FCS. To eliminate non-muscle cells the suspension is preplated in petri dishes for 30 minutes at 37° C. The cells in suspension are then seeded onto collagen coated coverslips. Seeding density will be adjusted to give confluent cultures.
2. Electrophysiology: The cover slips with confluent cardiomyocytes are mounted in an open chamber on the stage of an inverted microscope and superfused with Dulbeccos phosphate buffered saline (PBS) by gravity driven flow at 1 ml/min, 37° C. The solution (PBS) contain (in mM): Na+ 152, K+ 4.2, Cl− 141.5, PO43− 9.5, Ca2+ 0.9, Mg2+ 0.5, pH 7.4. Patch clamp pipettes are pulled from 1.5 mm glass capillaries (GC150F-15, Harvard Apparatus) on a Sutter Flaming-Brown P-87 microelectrode puller and fire polished to a resistance of 4–6 MW. […]
The cells were perfused with control solution with 0.1 g/l BSA until a stable baseline in the stimulus-activation interval (SAI) was established. […] Date are expressed as percent change relative to baseline prior to removal of glucose from the media.

CC(=O)N[C@H](Cc1ccc(O)cc1)C(=O)N1CCC[C@@H]1C(=O)N1C[C@@H](O)C[C@@H]1C(=O)NCC(=O)N[C@H](C)C(=O)NCC(N)=O [Compound 1, Ac-D-Tyr-D-Pro-D-4Hyp-Gly-D-Ala-Gly-NH2] (Ac-[dY][dP][dHyp]G[dA]G-NH2)
stimulus-activation interval: decreased the stimulus-activation interval
